One experiment relates to A. thaliana. Description: Root growth (primary root) of plants on high phosphate medium supplied with compound. The format is in vivo. The settings on record: expressed as a percentage having regard to a control; +P control 100, −P 20. From the text: In response to phosphate starvation, the primary root growth is inhibited (Svistoonoff et al., 2007).
The subject of another experiment is phopholipase Dz2. Kind of experiment: PLDz::GUS, follow-up of the expression of the gene encoding phospholipase Dz2 (GUS staining). The format is in vivo, A. thaliana. To be noted: summary over PLDz::GUS and MGD3::GUS; specific = without impact on growth or PHT1;4. On the procedure: pPLDZ2:GUS-GFP cell line is as described by Cruz-Ramirez et al. (Cruz-Ramirez et al., 2006), and expressed a GUS-GFP fusion under the control of the pldz2 promoter. […] Plants were examined for GUS activity by dipping the samples in a GUS staining solution (50 mM sodium phosphate buffer pH 7.0; 0.01% Triton X-100, 1 mM K3Fe(CN)6, 1 mM K4Fe(CN)6, 1 mg/ml 5-dromo-4-chloro-3-indolyl (3-D-GLUCURONIDE (X-Gluc A) and incubated at 37° C. over-night. After staining, the plants were fixed 2 hours in 50 mM sodium phosphate buffer pH 7.0; 1% glutaraldehyde; 4% formaldehyde. In response to phosphate starvation, the lipid metabolism is modified (Benning and Ohta, 2005). Plants preferentially synthesize sulpho- and galacto-lipids instead of phospholipids. Several enzymes are involved in this remobilisation.

A further experiment relates to wild type seedlings. Description: Anthocyanins content (spectrophotometric). On the set-up: key to Antho: anthocyanin content as A530 - 2.2*A652. The format is in vivo, A. thaliana. The settings on record: accumulation of anthocyanes; +P control 46, −P 1008. On the procedure: Anthocyanins were extracted with propanol:HCl:H2O (81:1:18) for 5 min at room temperature and 3 min at 100° C. Samples are centrifuged for 10 min at 4° C. Supernatants were collected and absorption measured at 530 nm and […]. Anthocyanin content was calculated as A530-2.2A652 (Lange et al., 1971).

Each structure is given as a SMILES string. “Also recorded” adds a separate entry of the source.

In the case of `CC1CC(=O)C(=CNc2ccccc2)C(=O)C1` (stereo not drawn) [#29], the “Root Growth” value in the experiment with A. thaliana is given as 85 % of control. Further, the “lipid metabolism: induction of PLDζ2 and/or MGD3 genes (in words)” value (from here on “lipid metabolism: induction”) in the experiment with phopholipase Dz2 is “impact specifically the lipid metabolism inducing PLD[…]2 and MGD3; also recorded: specificity in lipids remodeling”. The same compound gave an Antho in the experiment with wild type seedlings of 146.

Consider `CC1(C)CC(=O)C(=CNc2ccccc2N)C(=O)C1` [#40], for which the “Root Growth” value with A. thaliana is reported as 85 % of control. For the same compound, the “lipid metabolism: induction” value in the experiment on phopholipase Dz2 was “specificity in lipids remodeling”. Also, the Antho with wild type seedlings was found to be 65.

Turning to `COc1ccc(NC=C2C(=O)CCCC2=O)cc1` [#46], the “Root Growth” value in the experiment with A. thaliana was 70 % of control. In addition, the “lipid metabolism: induction” value with phopholipase Dz2 was “specificity in lipids remodeling”. The compound further registered an Antho in the experiment with wild type seedlings of 167.

Turning to `O=C1CCCC(=O)C1=CNc1ccc(Br)cc1` [#45], the “Root Growth” value with A. thaliana was 67 % of control. In the experiment with phopholipase Dz2, the “lipid metabolism: induction” value is “impact specifically the lipid metabolism inducing PLD[…]2 and MGD3; also recorded: specificity in lipids remodeling”. The same compound yielded an Antho with wild type seedlings of 106.

`CC1(C)CC(=O)C(=CNc2ccc3c(c2)OCO3)C(=O)C1` [#30]: in the experiment with A. thaliana, the “Root Growth” value was 65 % of control. Moreover, in the experiment with phopholipase Dz2, the “lipid metabolism: induction” value is “impact specifically the lipid metabolism inducing PLD[…]2 and MGD3; also recorded: specificity in lipids remodeling”. In the experiment with wild type seedlings, this compound yielded an Antho of 189.

With `COc1cccc(NC=C2C(=O)CCCC2=O)c1` [#41], in the experiment on A. thaliana, the “Root Growth” value is recorded as 65 % of control. Besides, the “lipid metabolism: induction” value in the experiment with phopholipase Dz2 was “impact specifically the lipid metabolism inducing PLD[…]2 and MGD3; also recorded: specificity in lipids remodeling”. The compound further gave an Antho in the experiment on wild type seedlings of 111.

As for `O=C1CCCC(=O)C1=CNc1ccccc1` [#23], the “Root Growth” value in the experiment with A. thaliana is 100 % of control. In addition, in the experiment on phopholipase Dz2, the “lipid metabolism: induction” value is given as “specificity in lipids remodeling”. The compound further registered an Antho in the experiment with wild type seedlings of 42.

For `CC1(C)CC(=O)C(=CNc2ccc(N)cc2)C(=O)C1` [#42], in the experiment with A. thaliana, the “Root Growth” value is 68 % of control. The “lipid metabolism: induction” value in the experiment on phopholipase Dz2 is “impact specifically the lipid metabolism inducing PLD[…]2 and MGD3; also recorded: specificity in lipids remodeling”. In the experiment on wild type seedlings, this compound showed an Antho of 226.

`CC(Nc1ccc(Br)cc1)=C1C(=O)CC(C)(C)CC1=O` [#21]: the “Root Growth” value in the experiment on A. thaliana is given as 93 % of control. The “lipid metabolism: induction” value with phopholipase Dz2 was “impact specifically the lipid metabolism inducing PLD[…]2 and MGD3”. The Antho with wild type seedlings worked out at 146.

`CC1(C)CC(=O)C(=C(S)Nc2ccccc2)C(=O)C1` [#31]: the “Root Growth” value in the experiment on A. thaliana is 89 % of control. Moreover, in the experiment on phopholipase Dz2, the “lipid metabolism: induction” value was “impact specifically the lipid metabolism inducing PLD[…]2 and MGD3; also recorded: specificity in lipids remodeling”. For the same compound, the Antho in the experiment with wild type seedlings is 62.

Values taken from patent US9028855B2, “Plant additives and uses thereof to modulate the synthesis of membrane glycerolipids in planta” (Commissariat a l'Energie Atomique et aux Energies …, priority 2009, dated 2015).
